Experimental data from patent US5432042A, “Method for obtaining a printing plate according to the silver salt diffusion transfer process” (Agfa-Gevaert, N.V., priority 1993, dated 1995).

Assay: pKa of the mercapto group by titration with hydrochloric acid
Assay type: physicochemical
Conditions: 0.002 mole/liter in water at pH 11, titrated with hydrochloric acid (0.1 mole/liter)
Experimental: The pKa of the hydrophobizing compounds in connection with the present invention were determined according to the method described in "Ionization Constants of Acids and Bases--A Laboratory Manual" written by Adrien Albert and E. P. Serjeant and Edited by John Wiley & Sons (New York) page 110-112 (1962).
In these particular cases, the hydrophobizing compounds were dissolved in water at pH 11. The concentration of the hydrophobizing compounds was 0.002 mole/liter and the mixture was then titrated with a solution of hydrochloric acid (0.1 mole/liter).

pKa | SMILES
4.8 | CCCCCCCc1nnc(S)o1 [2-mercapto-5-n.heptyl-oxa-3,4-diazole, reference compound]
3.3 | CCCCCCNC(=O)Cn1nnnc1S [compound 1]
3.4 | CCCCCCn1nnnc1S [compound 3]
